How the values were obtained:
Primary Mouse Astrocyte = experiment: CCK8 assay, primary culture astrocytes; assay type: cell-based
Experimental: The human glioblastoma cell lines U87MG (HTB-14), T98G (CRL-1690), and A172 (CRL-1620) were provided by the American Type Culture Collection (Manassas, VA, USA). The patient-derived cell line PT#3 was purified under the approval of the Institutional Review Board of Taipei Medical University (TMU) (No. 201006011). The murine astrocytoma cell line CT-2A (SCC194) was purchased from Merch Millipore (MA, USA). TMZ-resistant cell lines were established as described previously.[40] All cell lines were cultured in Dulbecco’s modified Eagle’s medium basal medium (Cat# 10-013-CM, CORNING, MA, USA), supplemented with 10% fetal bovine serum (Cat# 12676029, Thermo Fisher Scientific, MA, USA), 100 units/mL penicillin, and 100 μg/mL streptomycin (Cat# 15140122, Thermo Fisher Scientific) at 37 °C in the environment of 95% air and 5% carbon dioxide and maintained resistant characteristic with […] of TMZ (Cat# HY-17364, MedChemExpress, NJ, USA). Primary cultured astrocytes and neurons were derived from E17 embryonic mice. […]
Cell viability and drug cytotoxicity were determined by a CCK-8 kit (Cell Counting Kit-8, CK04-13, MD, USA) (CCK8, C0005, Target Molecule Corp., MA, USA) reagent. […] Finally, the OD was 450 nm absorbance and calculated for cell viability.

U87MG = experiment: CCK8 cell proliferation assay, U87MG; assay type: cell-based; conditions: Homo sapiens, U-87 MG, CCK8, 72 h
Experimental: Cell viability and drug cytotoxicity were determined by a CCK-8 kit (Cell Counting Kit-8, CK04-13, MD, USA) (CCK8, C0005, Target Molecule Corp., MA, USA) reagent. Cells were seeded 2 × 10^3 per well in the 96-well plate for 24 h, followed by treating at different concentrations of compounds for 72 h. Before the experiment, CCK8 was 10-fold diluted with the culture medium and then incubated with cells for 30 min. Finally, the OD was 450 nm absorbance and calculated for cell viability.

[1] = test system: CT-2A-R astrocytoma cells; experiment: Orthotopic CT-2A-R tumor model, IVIS; assay type: in vivo, mouse; conditions: 50 mg/kg orally
Experimental: Animals were imaged using an IVIS to monitor tumor growth and target expression changes. Initially, animals were anesthetized with isoflurane prior to imaging to minimize movement artifacts. D-luciferin (150 mg/kg) was then administered via an intraperitoneal injection. After 60 s, animals were positioned on the imaging platform, and images were acquired with a 10-s exposure. Experimental data were collected and quantified for fluorescence or bioluminescence signals by using Living Image software in the IVIS system. After each imaging session, animal ID, imaging parameters, and imaging time were recorded for subsequent analysis.
For orthotopic inoculation, CT-2A cells (1 × 10^5) or CT-2A-R (2 × 10^5) were suspended in 4 μL of DMEM and implanted into the brain of B6 mice. PT#3-R cells (5 × 10^5) were suspended in 4 μL of DMEM and implanted into the brain of SCID mice. After cell implantation, mice were monitored daily for survival, and their body weight was measured every 3 days starting from the seventh day. The oral vehicle consisted of 40% ethyl oleate, 12% lecithin, 20% propylene glycol, and 28% Triton X-100. Mice were administered 5 μL of vehicle per gram of body weight along with 50 mg/kg TMZ or a combination of TMZ and compound 1. Intraperitoneal injections were administered with DMSO (solvent control), TMZ (10 μg/kg), TMZ (10 μg/kg), and compound 1 (10 or 20 μg/kg). […]

HDAC8 = target: T1, HDAC8 (Homo sapiens, UniProt Q9BY41); experiment: HDAC enzyme inhibition assay, HDAC8; assay type: biochemical; conditions: 10-dose, 3-fold serial dilution starting at 10 μM
T1 construct: purchased Reaction Biology Corporation, Malvern, PA (contract assay service)
T1 sequence (Q9BY41 1-377): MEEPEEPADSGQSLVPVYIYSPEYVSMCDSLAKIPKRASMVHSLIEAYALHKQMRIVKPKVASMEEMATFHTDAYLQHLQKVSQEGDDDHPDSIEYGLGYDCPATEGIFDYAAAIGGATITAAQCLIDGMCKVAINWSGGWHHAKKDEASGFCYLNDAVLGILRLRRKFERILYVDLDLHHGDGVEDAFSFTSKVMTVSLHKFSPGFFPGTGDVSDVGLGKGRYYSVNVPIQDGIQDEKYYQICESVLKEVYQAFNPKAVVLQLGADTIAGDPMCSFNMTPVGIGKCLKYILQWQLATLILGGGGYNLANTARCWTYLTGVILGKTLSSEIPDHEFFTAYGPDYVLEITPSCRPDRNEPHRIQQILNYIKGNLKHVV
Experimental: (§1) Enzyme inhibition assays were performed by the Reaction Biology Corporation, Malvern, PA (http://www.reactionbiology.com).

HDAC1 = target: T2, HDAC1 (Homo sapiens, UniProt Q13547); experiment: HDAC enzyme inhibition assay, HDAC1; assay type: biochemical; conditions: 10-dose, 3-fold serial dilution starting at 10 μM
T2 construct: purchased Reaction Biology Corporation, Malvern, PA (contract assay service)
T2 sequence (Q13547 whole entry): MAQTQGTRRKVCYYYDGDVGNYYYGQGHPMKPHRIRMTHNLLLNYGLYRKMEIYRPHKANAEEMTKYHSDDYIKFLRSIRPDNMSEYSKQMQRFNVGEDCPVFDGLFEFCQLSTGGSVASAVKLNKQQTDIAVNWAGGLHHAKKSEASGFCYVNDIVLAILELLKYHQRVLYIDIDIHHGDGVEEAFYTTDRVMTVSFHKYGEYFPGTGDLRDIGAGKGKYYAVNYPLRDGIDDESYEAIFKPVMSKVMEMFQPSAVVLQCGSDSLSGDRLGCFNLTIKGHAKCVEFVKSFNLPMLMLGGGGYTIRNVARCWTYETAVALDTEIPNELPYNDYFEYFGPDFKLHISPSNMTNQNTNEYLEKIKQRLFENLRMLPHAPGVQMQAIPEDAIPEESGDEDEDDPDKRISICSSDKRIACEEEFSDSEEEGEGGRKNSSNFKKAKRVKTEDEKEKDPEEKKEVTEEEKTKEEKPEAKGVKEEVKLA
Experimental: as §1

Q: How did the IC50 (Primary Mouse Astrocyte) turn out when `O=C(/C=C/c1ccc(CNC[C@H]2CN(c3ccc(N4CCOCC4)c(F)c3)C(=O)O2)cc1)NO` [compound 1, (S,E)-3-(4-((((3-(3-Fluoro-4-morpholinophenyl)-2-oxooxazolidin-5-yl)methyl)ami-no)methyl)phenyl)-N-hydroxyacrylamide] was run?
A: Its IC50 is 143 ± 7.9 µM.

Q: What about the IC50 (U87MG) of the same molecule?
A: The IC50 was 13.5 ± 0.54 µM.

Q: And the “growth of orthotopic tumors (IVIS)” value [1]?
A: Its value is “effectively inhibited the growth of orthotopic tumors”.

Q: What about the IC50 (HDAC8) of the same molecule?
A: Its IC50 is 0.447 µM.

Q: What about the IC50 (HDAC1) of the same molecule?
A: The IC50 was 1.09 µM.

— PMC11831592, “Repurposing Linezolid in Conjunction with Histone Deacetylase Inhibitor Access in the Realm of Glioblastoma Therapies” (Journal of Medicinal Chemistry, 2025)
